Assay results: patent US20040006103A1, “Use of chloroquine, hydroxychloroquine and 4 amino-quinolinic derivatives to obtain a drug for the anti retroviral therapy, active towards HIV sensitive strains and towards HIV strains which are resistant to both nucleosidic and non-nucleosidic reverse transcriptase inhibitors and to proteases …” (VALPHARMA S.A., priority 2002, published 2004)
Read-outs that look alike come from different tables or passages of the source.

Columns and labels:
Assay type in all cases: cell-based
[1] = test system: HIV-1 clinical isolated, characterised by mutations in the protease gene inducing geno-phenotypic resistance to IDV; assay: p24 production susceptibility test (ACTG protocol), Table 9; settings: for EC50: Human immunodeficiency virus 1, PBMC; for S.I. CQ: I.C.50/E.C.50; for Fen. CQ (fold): ratio to HIV-IIIB
Text: (§1) For the phenotype of the nucleosidic, non-nucleosidic and proteases inhibitors was utilised a method which consider the use of human PBMC and the protocol standardised by the AIDS Clinical Trials Group, after verifying the genotype by sequence analysis.
(§2) In order to assay in vitro the susceptibility to chloroquine and hydroxychloroquine of the viral strains, it was used the protocol of the ACTG which is characterised by the measure, of the production of antigen p24 in strongly infected cells.
(§3) The susceptibility of the viral strains to chemotherapics was determined in cell cultures, prepared in 96 wells microplates, using, for the infection, 0.1 MOI.
(§4) The supernatant of the infected cultures (either in absence or in presence of different concentrations of chemotherapic) were tested for the production of p24 after 7 days, using an ELISA test which is commercially available.
(§5) The concentrations of chloroquine and hydroxychloroquine tested ranged from 0.5 to 15 uM. At the same time non-infected cells were incubated with concentrations of chloroquine and hydroxychloroquine ranging from 0 to 50 uM to evaluate the toxicity of the compound.
(§6) After 4 day from the infection, half the cellular medium was replaced with a medium containing the corresponding dilution of chloroquine and hydroxychloroquine. The percentage of inhibition of the HIV replication, induced by chloroquine and hydroxychloroquine, was determined, after 7 day from the infection, comparing the levels of p24 of this cultures and that of the control, infected and not treated with chloroquine and hydroxychloroquine.
(§7) Therefore, the E.C.50 of chloroquine and hydroxychloroquine expresses the concentration of chemotherapic that inhibits the 50% of production of p24 and the values were calculated using linear and non linear regression analysis (the significativity for the non linear regression was R^2>0.95).
(§8) In the same experimental conditions and in the same day, but with similar concentrations of chloroquine and hydroxychloroquine, it was evaluated the vitality of the infect cell cultures, and this was expressed as I.C.50.
(§9) I.C.50 (Inhibitory Concentration) indicates the concentration of the chemotherapic agent inhibiting the vitality of the cell cultures at a rate of 50%, when there is not infection.

[2] = test system: HIV-1 strains geno-phenotypically resistant to EFV; assay: p24 production susceptibility test, Table 7, MT-2 cells; settings: for EC50: Human immunodeficiency virus 1, MT2, MT-2, read-out: E.C.50 CQ; for S.I. CQ / Fen. CQ (fold): MT-2; for S.I. CQ: I.C.50/E.C.50; for Fen. CQ (fold): ratio to HIV-IIIB
Text: as §1, §2, §3, §4, §5, §6, §7, §8, §9

[3] = test system: HIV-1 clinical isolated, characterised by mutations in the RT gene inducing geno-phenotypic resistance to d4T; assay: p24 production susceptibility test (ACTG protocol), Table 4; settings: for EC50: Human immunodeficiency virus 1, PBMC, read-out: E.C.50 CQ; for S.I. CQ / Fen. CQ (fold): PBMC; for S.I. CQ: I.C.50/E.C.50; for Fen. CQ (fold): ratio to HIV-IIIB
Text: as §1, §2, §3, §4, §5, §6, §7, §8, §9

[4] = test system: HIV-1 strains cultivated in PBMC and isolated from patient naive to the treatment; assay: p24 production susceptibility test (ACTG protocol), Table 11; settings: for EC50: Human immunodeficiency virus 1, PBMC; for S.I. CQ: I.C.50/E.C.50
Experimental: as §2, §3, §4, §5, §6, §7, §8, §9

[5] = test system: HIV-1 clinical isolated, characterised by mutations on the protease gene inducing geno-phenotypic resistance to NFV; assay: p24 production susceptibility test, Table 10, H-9 cells; settings: for S.I. CQ / Fen. CQ (fold): H-9; for S.I. CQ: I.C.50/E.C.50; for Fen. CQ (fold): ratio to HIV-IIIB; for EC50: Human immunodeficiency virus 1, H9, H-9, read-out: E.C.50 CQ
Text: as §1, §2, §3, §4, §5, §6, §7, §8, §9

[6] = test system: HIV-1 clinical isolated, characterised by mutations in the protease gene inducing geno-phenotypic resistance to SQV; assay: p24 production susceptibility test (ACTG protocol), Table 8; settings: for EC50: Human immunodeficiency virus 1, PBMC, read-out: E.C.50 CQ; for S.I. CQ / Fen. CQ (fold): PBMC; for S.I. CQ: I.C.50/E.C.50; for Fen. CQ (fold): ratio to HIV-IIIB
Text: as §1, §2, §3, §4, §5, §6, §7, §8, §9

[7] = PBMC, Gen. K20R E35D M36I I54V V82T
[8] = Gen. K65R F77L Y115F Q151M M184V

Q: What does the source list for `CCN(CC)CCCC(C)Nc1ccnc2cc(Cl)ccc12` (centres unmarked) [CQ, chloroquine]?
A: EC50 ([1]; PBMC, Gen. G48V V82A, read-out: E.C.50 CQ): 2.5 µM; EC50 ([1]; PBMC, Gen. I84V L90M, read-out: E.C.50 CQ): 2.2 µM; EC50 ([1]; PBMC, Gen. K20R E35D M36I I54V V82T, read-out: E.C.50 CQ): 1.8 µM; EC50 ([1]; PBMC, Gen. V82F L90M, read-out: E.C.50 CQ): 2.8 µM; EC50 ([1]; read-out: E.C.50 CQ (uM), PBMC, Gen. L10R M46I L63P V82T): 1.5 µM; S.I. CQ ([1]; PBMC, Gen. G48V V82A): 3.6; Fen. CQ (fold) ([1]; PBMC, Gen. G48V V82A): 1.3X fold; S.I. CQ ([1]; PBMC, Gen. I84V L90M): 4; Fen. CQ (fold) ([1]; PBMC, Gen. I84V L90M): 1.2X fold; S.I. CQ [1, 7]: 5.5; Fen. CQ (fold) [1, 7]: 1X fold; S.I. CQ ([1]; PBMC, Gen. L10R M46I L63P V82T): 5.5; Fen. CQ (fold) ([1]; PBMC, Gen. L10R M46I L63P V82T): 1X fold; S.I. CQ ([1]; PBMC, Gen. V82F L90M): 3.4; Fen. CQ (fold) ([1]; PBMC, Gen. V82F L90M): 1.5X fold; EC50 ([2]; Gen. K101D K103N): 2800 nM; EC50 ([2]; Gen. K103N V108D): 2200 nM; EC50 ([2]; Gen. K103N Y181C): 2500 nM; EC50 ([2]; Gen. K103N): 2200 nM; EC50 ([2]; Gen. L100I K103N): 3200 nM; EC50 ([2]; Gen. Y181C): 1800 nM; S.I. CQ ([2]; Gen. K101D K103N): 7.8; Fen. CQ (fold) ([2]; Gen. K101D K103N): 1.8X fold; S.I. CQ ([2]; Gen. K103N V108D): 6.8; Fen. CQ (fold) ([2]; Gen. K103N V108D): 1.4X fold; S.I. CQ ([2]; Gen. K103N Y181C): 8; Fen. CQ (fold) ([2]; Gen. K103N Y181C): 1.6X fold; S.I. CQ ([2]; Gen. K103N): 8.5; Fen. CQ (fold) ([2]; Gen. K103N): 1.4X fold; S.I. CQ ([2]; Gen. L100I K103N): 6.2; Fen. CQ (fold) ([2]; Gen. L100I K103N): 2.1X fold; S.I. CQ ([2]; Gen. Y181C): 8.5; Fen. CQ (fold) ([2]; Gen. Y181C): 1.2X fold; EC50 [3, 8]: 3500 nM; EC50 ([3]; Gen. K65R F116Y Q151M): 3500 nM; EC50 ([3]; Gen. M41I T69SSS T215Y): 2800 nM; EC50 ([3]; Gen. T69SSS T215Y): 2800 nM; EC50 ([3]; Gen. V75I F77L F116Y Q151M): 2200 nM; S.I. CQ [3, 8]: 3.4; Fen. CQ (fold) [3, 8]: 2.3X fold; S.I. CQ ([3]; Gen. K65R F116Y Q151M): 3.4; Fen. CQ (fold) ([3]; Gen. K65R F116Y Q151M): 2.3X fold; S.I. CQ ([3]; Gen. M41I T69SSS T215Y): 3.4; Fen. CQ (fold) ([3]; Gen. M41I T69SSS T215Y): 1.8X fold; S.I. CQ ([3]; Gen. T69SSS T215Y): 3.4; Fen. CQ (fold) ([3]; Gen. T69SSS T215Y): 1.8X fold; S.I. CQ ([3]; Gen. V75I F77L F116Y Q151M): 3; Fen. CQ (fold) ([3]; Gen. V75I F77L F116Y Q151M): 1.5X fold; EC50 ([4]; HIV-1 virus sensitive to the anti-retroviral treatment, range over each experiment, read-out: E.C.50): 1500 to 3500 nM; EC50 ([4]; PBMC, Virus N°1, read-out: E.C.50 CQ): 1500 nM; EC50 ([4]; PBMC, Virus N°2, read-out: E.C.50 CQ): 2200 nM; EC50 ([4]; PBMC, Virus N°3, read-out: E.C.50 CQ): 1800 nM; EC50 ([4]; PBMC, Virus N°4, read-out: E.C.50 CQ): 2500 nM; EC50 ([4]; PBMC, Virus N°5, read-out: E.C.50 CQ): 2000 nM; S.I. CQ ([4]; PBMC, Virus N°1): 5; S.I. CQ ([4]; PBMC, Virus N°2): 4; S.I. CQ ([4]; PBMC, Virus N°3): 5; S.I. CQ ([4]; PBMC, Virus N°4): 3.5; S.I. CQ ([4]; PBMC, Virus N°5): 4; S.I. CQ ([5]; Gen. D30N): 4.2; Fen. CQ (fold) ([5]; Gen. D30N): 1.3X fold; S.I. CQ ([5]; Gen. V82A): 5; Fen. CQ (fold) ([5]; Gen. V82A): 1.5X fold; EC50 ([5]; Gen. D30N): 2500 nM; EC50 ([5]; Gen. V82A): 2700 nM; EC50 ([6]; Gen. G48V I84V A74V L90M): 1800 nM; EC50 ([6]; Gen. G48V V82A): 3500 nM; EC50 ([6]; Gen. I84V L90M): 2500 nM; EC50 ([6]; Gen. M46I G48V L63P L90M): 2000 nM; EC50 ([6]; Gen. V82A L90M): 1500 nM; S.I. CQ ([6]; Gen. G48V I84V A74V L90M): 5.5; Fen. CQ (fold) ([6]; Gen. G48V I84V A74V L90M): 1X fold; S.I. CQ ([6]; Gen. G48V V82A): 3.4; Fen. CQ (fold) ([6]; Gen. G48V V82A): 1.9X fold; S.I. CQ ([6]; Gen. I84V L90M): 3.6; Fen. CQ (fold) ([6]; Gen. I84V L90M): 1.3X fold; S.I. CQ ([6]; Gen. M46I G48V L63P L90M): 6.7; Fen. CQ (fold) ([6]; Gen. M46I G48V L63P L90M): 1.1X fold; S.I. CQ ([6]; Gen. V82A L90M): 6; Fen. CQ (fold) ([6]; Gen. V82A L90M): 0.8X fold
